Experimental data published in paper PMC12172596, “Unveiling New Triazoloquinoxaline‐Based PROTACs Designed for the Selective Degradation of the ncBAF Chromatin Remodeling Subunit BRD9” (Chemistry (Weinheim an Der Bergstrasse, Germany), 2025).
Where two headings read alike, the source gives them in different places.

Columns and labels:
BRD9 (BD1) [1] = target: T1, BRD9 (BD1) (Homo sapiens, UniProt Q9H8M2); set-up: method as in PMID 34823196; settings: previously disclosed; read-out: IC50, affinity for BRD9; cited from earlier work
T1 construct: BSP‐32519
T1 sequence (Q9H8M2 136-240 limits assumed): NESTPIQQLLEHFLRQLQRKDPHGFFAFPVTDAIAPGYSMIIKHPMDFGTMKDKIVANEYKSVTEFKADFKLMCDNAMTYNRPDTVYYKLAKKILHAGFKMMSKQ

BRD9 = target: T2, BRD9 (Homo sapiens, UniProt Q9H8M2); assay: Western blotting of BRD9 protein levels in U937 cells; assay type: cell-based; settings: for BRD9 protein levels (degradation): different concentrations
T2 construct: WB analysis showing BRD9 protein levels following 48‐hours treatments with compounds 2−8; endogenous in cells; host or cells: U937 (ATCC)
T2 sequence (Q9H8M2 1-597): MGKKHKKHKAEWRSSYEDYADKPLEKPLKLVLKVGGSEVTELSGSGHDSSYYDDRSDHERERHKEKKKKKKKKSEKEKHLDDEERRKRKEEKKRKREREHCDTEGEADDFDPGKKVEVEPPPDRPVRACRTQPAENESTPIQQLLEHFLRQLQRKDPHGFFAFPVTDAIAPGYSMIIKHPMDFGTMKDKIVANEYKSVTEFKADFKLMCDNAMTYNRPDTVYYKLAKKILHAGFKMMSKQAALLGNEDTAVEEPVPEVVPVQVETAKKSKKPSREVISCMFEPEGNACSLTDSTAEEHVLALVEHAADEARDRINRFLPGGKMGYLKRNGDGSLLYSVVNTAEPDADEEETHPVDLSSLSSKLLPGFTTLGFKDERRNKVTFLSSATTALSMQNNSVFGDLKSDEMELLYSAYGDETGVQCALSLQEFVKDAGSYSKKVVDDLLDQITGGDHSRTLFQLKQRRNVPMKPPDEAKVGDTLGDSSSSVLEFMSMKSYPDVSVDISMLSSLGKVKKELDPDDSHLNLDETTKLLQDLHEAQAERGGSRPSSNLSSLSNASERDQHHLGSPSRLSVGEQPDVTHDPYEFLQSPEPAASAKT
Protocol: Cells have been authenticated by STR profiling.
Western blot was performed according to the previous protocol.^[ [71], [72] ^] U937 AML cells were pelleted and then lysed in RIPA buffer (1% Triton X‐100, 0.1% SDS, 150 mM NaCl, 1 mM EDTA pH 8, 10 mM Tris‐HCl pH 8) added with 1% protease inhibitor cocktail. The resulting lysate was subjected to centrifugation for 15 minutes at 4 °C. […] The protein signal was visualized by enhanced chemiluminescence method (ECL) through the Bio‐Rad Chemidoc machine. ImageJ software was used for densitometric analysis.

U937 cells [2] = assay: CCK8 viability assay in U937 cells; assay type: cell-based, human; settings: for U937 cell viability: CCK8, 48 hours treatment
Protocol: (§1) The AML U937 cell line (ATCC) was grown in Roswell Park Memorial Institute (RPMI) 1640 Medium with the addition of 10% fetal bovine serum (FBS), 1% L‐glutamine, and 1% antibiotics (100 U/mL penicillin, 100 µg/mL streptomycin, and 250 ng/mL amphotericin‐B). Cells have been authenticated by STR profiling.
CCK8 was purchased from Elabscience and used according to manufacturer instructions, briefly: 100 µL of cell suspension was added to each well using a 96‐well microplate. Cells were then incubated at 37 °C, in a 5% CO2 incubator for 24 hours. Compounds were added to the cells and incubated for an additional 48 hours at 37 °C. Next, 10 µL of CCK‐8 Buffer was added to each well, and cells were incubated again for 4 hours. Next, 450 nm absorbance was measured using a TECAN microplate reader.

BRD9 (BD1) [3] = target: T1, BRD9 (BD1); assay: AlphaScreen assay, BRD9 (BD1) Inhibitor Screening Assay Kit; assay type: binding; settings: for IC50: AlphaScreen, read-out: IC50, BRD9 binding
Protocol: The evaluation of the interaction between synthesized compounds and BRD9 was conducted using AlphaScreen Technology using an Enspire microplate analyzer (Perkin Elmer)^[ [70] ^] and the BRD9 (BD1) Inhibitor Screening Assay Kit (BSP‐32519) as reported by Colarusso et al.^[ [38], [39] ^] IC50 values were calculated by GraphPad Prism10 software.

[4] = Microsomal stability in human liver microsomes (HLMs); assay type: in vitro ADME; settings: LC-MS/MS analysis
Protocol: In our assay we followed the loss of the test compounds over time under CYP‐mediated metabolic pathways. The extent of hepatic metabolism allowed us the determination of different pharmacokinetic parameters such as in vitro t1/2, CLint, in vitro and CLint, in vivo. In vitro t1/2 and CLint, in vitro of test compounds after liver microsomes incubation were calculated according to “well‐stirred” model. In the “well‐stirred” model, the liver is represented by a single compartment, where the unbound concentration of a drug leaving the liver is in equilibrium with the intracellular unbound concentration in the hepatocytes.^[ [53] ^] Predicted CLint, invivo values were determined using human PBSF.^[ [54] ^]
The microsomal stability of compounds 2 and 9 was assessed according to the previously described protocol.^[ [73] ^] […] The supernatants were collected and analyzed by LC‐MS/MS. The extent of metabolism is quantified as a percentage of the parent compound turnover. […] In vitro half‐lives (t1/2) were calculated using the expression t1/2 = 0.693/b, where b is the slope found in the linear fit of the natural logarithm of the fraction remaining of the parent compound versus incubation time. Microsomal intrinsic clearance was calculated as CLint , in vitro = (1000) × (0.693/t1/2)/0.5. […]

Human plasma stability = assay type: in vitro ADME; settings: incubation up to 120 minutes, 37 °C, read-out: compound recovery after incubation with human plasma
Protocol: The plasma stability of compounds 2 and 9 was evaluated. Briefly, the plasma was equilibrated at 37 °C, and biotransformation was initiated by adding the compound solution and mixing. At each specified time point (0, 60, and 120 minutes), test compounds were extracted into 200 µL ice‐cold methanol to stop degradation. Tolbutamide was added during the quenching phase. Finally, the concentration of the test compound was monitored by LC‐MS. The percentage of the test compound remaining at each individual time point was reported. The results are reported as mean ± SD from three independent experiments. Procaine and procainamide were used as controls.

BRD7 = target: T3, BRD7 (Homo sapiens, UniProt Q9NPI1); assay: Western blotting of BRD7 protein levels in U937 cells; assay type: cell-based; settings: 48 hours treatment, western blot
T3 construct: WB analysis showing BRD9 and BRD7 protein levels following 48‐hours treatment with compound 9; endogenous in cells; host or cells: U937 (ATCC)
T3 sequence (Q9NPI1 1-651): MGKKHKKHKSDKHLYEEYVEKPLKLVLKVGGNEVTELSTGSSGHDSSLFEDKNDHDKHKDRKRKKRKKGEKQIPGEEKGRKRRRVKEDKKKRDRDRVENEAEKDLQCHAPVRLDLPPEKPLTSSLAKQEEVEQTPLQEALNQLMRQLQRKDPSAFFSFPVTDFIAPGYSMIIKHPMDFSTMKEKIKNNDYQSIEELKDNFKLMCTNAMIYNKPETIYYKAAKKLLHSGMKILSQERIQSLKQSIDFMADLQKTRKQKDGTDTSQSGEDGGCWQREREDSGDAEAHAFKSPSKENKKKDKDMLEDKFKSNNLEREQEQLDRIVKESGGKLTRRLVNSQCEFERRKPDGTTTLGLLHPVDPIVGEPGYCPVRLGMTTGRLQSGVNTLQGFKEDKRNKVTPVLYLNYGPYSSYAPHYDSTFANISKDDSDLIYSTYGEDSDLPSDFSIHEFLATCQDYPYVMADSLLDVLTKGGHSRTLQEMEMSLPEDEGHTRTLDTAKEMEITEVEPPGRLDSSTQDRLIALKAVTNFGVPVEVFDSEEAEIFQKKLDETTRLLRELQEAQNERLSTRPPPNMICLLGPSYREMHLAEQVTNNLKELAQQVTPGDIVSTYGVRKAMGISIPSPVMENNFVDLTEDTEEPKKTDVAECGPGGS
Protocol: as §1
Western blot was performed according to the previous protocol.^[ [71], [72] ^] U937 AML cells were pelleted and then lysed in RIPA buffer (1% Triton X‐100, 0.1% SDS, 150 mM NaCl, 1 mM EDTA pH 8, 10 mM Tris‐HCl pH 8) added with 1% protease inhibitor cocktail. The resulting lysate was subjected to centrifugation for 15 minutes at 4 °C. After that, the supernatant was collected and supplemented with 6X Laemmli buffer (0.217 M Tris‐HCl pH 8.0, 52.17% SDS, 17.4% glycerol, 0.026% bromophenol blue, 8.7% beta‐mercapto‐ethanol) and boiled for 3 minutes at 99 °C,25 µg of protein extract were resolved by SDS‐polyacrylamide gel electrophoresis and then transferred on nitrocellulose membrane (Bio‐Rad). The membrane was probed with anti‐BRD9 (Bethyl Laboratories #A303‐781A), anti‐BRD7 (Invitrogen #PA5‐40379), anti‐GADPH (Elabscience # E‐AB‐40337), and anti‐α‐tubulin (Elabscience # E‐AB‐20036). The protein signal was visualized by enhanced chemiluminescence method (ECL) through the Bio‐Rad Chemidoc machine. ImageJ software was used for densitometric analysis. […]

U937 cells [5] = assay: Proliferation assay (trypan blue exclusion cell counting) in U937 cells; assay type: cell-based, human; settings: time-point treatment
Protocol: as §1
Trypan blue exclusion cell counting has been used to trace the number of cells over the different times of analysis.

[6] = 48 hours treatment, western blot

CCc1nnc2c(Nc3cccc(NC(C)=O)c3)nc3ccccc3n12 [compound 1]
IC50 (BRD9 (BD1) [1]): 4200 ± 1920 nM
BRD9 protein levels (degradation) (BRD9; [6]): only a slight reduction in BRD9 protein levels
U937 cell viability (U937 cells [2]): minimally affected

CCc1nnc2c(Nc3cccc(NC(=O)CCCCCCOCCOCC(=O)N[C@H](C(=O)N4C[C@H](O)C[C@H]4C(=O)NCc4ccc(-c5scnc5C)cc4)C(C)(C)C)c3)nc3ccccc3n12 [compound 2]
residual binding of histone H4 (BRD9 (BD1) [3]; 10 µM ligand concentration): 21.6 ± 0.3%
IC50 (BRD9 (BD1) [3]): 2970 ± 250 nM
primary metabolites after incubation with HLMs [4]: dealkylation reactions
recovery at 120 min (Human plasma stability): ≥ 90%
U937 cell viability (U937 cells [2]): strong reduction of cell viability

CCc1nnc2c(Nc3cccc(NC(=O)CCCCCCNc4cccc5c4C(=O)N(C4CCC(=O)NC4=O)C5=O)c3)nc3ccccc3n12 (stereo not drawn) [compound 4]
BRD9 protein levels (degradation) (BRD9; [6]): no effect was observed
U937 cell viability (U937 cells [2]): did not observe variation in cell viability

CCc1nnc2c(Nc3cccc(NC(=O)CCOCCNc4cccc5c4C(=O)N(C4CCC(=O)NC4=O)C5=O)c3)nc3ccccc3n12 (stereo not drawn) [compound 5]
U937 cell viability (U937 cells [2]): strong reduction of cell viability

CCc1nnc2c(Nc3cccc(NC(=O)CCOCCOCCNc4cccc5c4C(=O)N(C4CCC(=O)NC4=O)C5=O)c3)nc3ccccc3n12 (stereo not drawn) [compound 6]
BRD9 protein levels (degradation) (BRD9; [6]): no effect was observed
U937 cell viability (U937 cells [2]): did not observe variation in cell viability

CCc1nnc2c(Nc3cccc(NC(=O)CCOCCOCCOCCNc4cccc5c4C(=O)N(C4CCC(=O)NC4=O)C5=O)c3)nc3ccccc3n12 (stereo not drawn) [compound 7]
BRD9 protein levels (degradation) (BRD9; [6]): no effect was observed
U937 cell viability (U937 cells [2]): did not observe variation in cell viability

CCc1nnc2c(Nc3cccc(NC(=O)CCCCCCOCCOCC(=O)Nc4cccc5c4C(=O)N(C4CCC(=O)NC4=O)C5=O)c3)nc3ccccc3n12 (stereo not drawn) [compound 8]
BRD9 protein levels (degradation) (BRD9; [6]): no effect was observed
U937 cell viability (U937 cells [2]): did not observe variation in cell viability

CCCCc1nnc2c(Nc3cccc(NC(=O)CCCCCCOCCOCC(=O)N[C@H](C(=O)N4C[C@H](O)C[C@H]4C(=O)NCc4ccc(-c5scnc5C)cc4)C(C)(C)C)c3)nc3ccccc3n12 [compound 9]
IC50 (BRD9 (BD1) [3]): 660 ± 40 nM
fold higher binding affinity to BRD9 compared to degrader 2 (BRD9 (BD1) [3]; compared to compound 2): 4.5 fold
primary metabolites after incubation with HLMs [4]: dealkylation reactions
recovery at 120 min (Human plasma stability): ≥ 90%
BRD9 protein levels with proteasome inhibitor MG132 (BRD9; 48 hours treatment with or without MG132 (25 µM for 6 hours)): MG132 treatment rescued BRD9 depletion
concentration at which BRD9 degradation is effectively induced (BRD9; [6]): 1 µM
U937 cell viability (U937 cells [2]): significantly impaired leukemic cell viability
ability to reduce leukemic cell viability and AML cell proliferation compared with dBRD9 (U937 cells [2]; U937 cells, versus reference dBRD9): superior ability to reduce leukemic cell viability and AML cell proliferation
BRD7 protein levels (BRD7): not interfering with BRD7 protein levels
AML cell proliferation (U937 cells [5]): negatively affected AML cell proliferation
